Active and inactive are the calls of the source.

What is called AC50 is the midpoint of the concentration-response curve, whichever way the signal moves.

A short description of test [1]: microbe, parasite or virus in culture. Type of test: functional. The following applies: Mycobacterium tuberculosis.
The target in another test is T1, Streptokinase A (Streptococcus pyogenes serotype M1, UniProt P10520).
T1 sequence (P10520 whole entry): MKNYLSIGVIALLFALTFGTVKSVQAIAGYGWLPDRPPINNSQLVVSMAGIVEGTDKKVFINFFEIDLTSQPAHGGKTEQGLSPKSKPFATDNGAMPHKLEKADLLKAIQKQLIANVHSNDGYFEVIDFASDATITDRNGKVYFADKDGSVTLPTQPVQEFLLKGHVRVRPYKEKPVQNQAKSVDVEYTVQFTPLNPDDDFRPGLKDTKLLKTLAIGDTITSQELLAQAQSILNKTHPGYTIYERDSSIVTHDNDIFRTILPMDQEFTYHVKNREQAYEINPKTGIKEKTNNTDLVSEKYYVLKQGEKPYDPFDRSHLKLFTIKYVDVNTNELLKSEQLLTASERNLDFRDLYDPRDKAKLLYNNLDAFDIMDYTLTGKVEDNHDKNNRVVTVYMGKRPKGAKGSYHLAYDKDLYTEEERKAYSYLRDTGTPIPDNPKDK
The test can be described thus: S. pyogenes streptokinase expression inhibitors, potency, dose response, plasminogen activation absorbance, OD405 (AID 1914).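 Further: secreted streptokinase activity via plasminogen activation per viability signal from cell pellet.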 Type of test: functional, Streptococcus pyogenes M1 GAS.

For the next test, the system named is Streptococcus. The test can be described thus: Group A Streptococcus viability loss, dose response, counter-screen for streptokinase expression inhibitor project, luminescence, BacTiterGlo (AID 1915).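 Further: potency for reduction of bacterial viability or growth.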 Type of test: functional, organism-based.
Test [2] deals with Streptococcus sp. 'group A'. As to the kind of experiment: growth inhibition of control SK(-) GAS strain, dose response, counter-screen for streptokinase expression inhibitor project, luminescence, kanamycin, BacTiterGlo, confirmation (AID 1900). Type of test: functional, organism-based. For orientation: A counterscreen serves to expose hits that act by an unwanted route or on another target.

The next test concerns the target T2, Protein skinhead-1 (Caenorhabditis elegans, UniProt P34707).
T2 sequence (P34707 whole entry): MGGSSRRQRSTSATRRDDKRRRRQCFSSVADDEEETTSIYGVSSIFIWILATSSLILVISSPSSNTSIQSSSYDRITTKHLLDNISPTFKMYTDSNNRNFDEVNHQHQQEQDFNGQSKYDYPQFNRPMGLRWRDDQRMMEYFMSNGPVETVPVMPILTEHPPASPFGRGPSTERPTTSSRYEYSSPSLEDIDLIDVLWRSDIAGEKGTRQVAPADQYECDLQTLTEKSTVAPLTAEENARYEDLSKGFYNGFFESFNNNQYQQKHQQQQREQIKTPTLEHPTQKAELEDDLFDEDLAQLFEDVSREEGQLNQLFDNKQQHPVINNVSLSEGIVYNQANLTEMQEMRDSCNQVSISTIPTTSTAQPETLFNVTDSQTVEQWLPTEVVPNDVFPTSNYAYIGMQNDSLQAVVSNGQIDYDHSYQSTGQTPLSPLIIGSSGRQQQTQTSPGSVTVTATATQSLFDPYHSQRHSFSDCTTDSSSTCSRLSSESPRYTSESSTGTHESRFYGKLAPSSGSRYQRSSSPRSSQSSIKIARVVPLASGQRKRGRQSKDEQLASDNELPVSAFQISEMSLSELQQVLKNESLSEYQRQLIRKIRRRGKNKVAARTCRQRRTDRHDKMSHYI
Type of test: functional.

Test [3] is described as follows: growth suppression of PTEN-null colon cells, dose response, cell-based, HCT116 PTEN knockout (AID 1047).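 Further: HCT116 colon tumor cells with PTEN knocked out; cells exposed to compound for 60 hours before readout; potency for loss of cell viability measured by luminescence.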 Type of test: functional.
The nature of test [4]: growth suppression of beta-catenin-knockout colon cells, dose response, cell-based, HCT116, human colon tumor (AID 1045).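 Further: HCT116 colon tumor cells with beta catenin knocked out; cells exposed to compound for 60 hours.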 Type of test: functional.
Test [5] concerns the target T3, Corticotropin-releasing factor receptor 2/Corticotropin-releasing factor-binding protein (Homo sapiens, UniProt P24387+Q13324).
T3 sequence (Q13324 whole entry): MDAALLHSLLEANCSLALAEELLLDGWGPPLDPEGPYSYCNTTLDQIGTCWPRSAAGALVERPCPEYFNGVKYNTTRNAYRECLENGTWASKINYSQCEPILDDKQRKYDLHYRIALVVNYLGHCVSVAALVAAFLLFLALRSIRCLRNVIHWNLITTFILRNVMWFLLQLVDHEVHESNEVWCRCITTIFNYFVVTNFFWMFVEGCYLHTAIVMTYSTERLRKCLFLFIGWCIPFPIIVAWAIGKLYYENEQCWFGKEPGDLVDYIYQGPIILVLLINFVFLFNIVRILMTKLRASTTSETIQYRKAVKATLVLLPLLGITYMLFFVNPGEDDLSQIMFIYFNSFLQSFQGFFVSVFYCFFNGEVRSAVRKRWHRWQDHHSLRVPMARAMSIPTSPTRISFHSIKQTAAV
T3 sequence (P24387 whole entry): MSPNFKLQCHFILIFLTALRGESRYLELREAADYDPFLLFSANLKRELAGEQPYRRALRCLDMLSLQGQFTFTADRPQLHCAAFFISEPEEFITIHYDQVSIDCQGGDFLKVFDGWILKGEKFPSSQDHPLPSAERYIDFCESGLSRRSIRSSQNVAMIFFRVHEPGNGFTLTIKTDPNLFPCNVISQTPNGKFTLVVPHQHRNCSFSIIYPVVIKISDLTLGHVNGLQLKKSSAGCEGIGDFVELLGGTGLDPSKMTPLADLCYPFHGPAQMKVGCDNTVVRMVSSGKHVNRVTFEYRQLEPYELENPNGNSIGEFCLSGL
As to the kind of experiment: activators of CRF receptor 2 with binding protein – uHTS hits, confirmation (AID 602473). Type of test: functional. To be noted: read-out: EC50_Mean.

Test [6] addresses FAD-linked sulfhydryl oxidase ALR (Homo sapiens, UniProt P55789). As to the kind of experiment: inhibitors of human ALR sulfhydryl oxidase, dose response, biochemical, H2O2 detection, luminescence, cherry-pick (AID 493248).
Test [7] concerns the target T4, Polyadenylate-binding protein 1 (Homo sapiens, UniProt P11940). As to the kind of experiment: PABP1 MLLE–PAM2 binding inhibitor potency, dose response, biochemical, fluorescence polarization, FITC-PAM2 peptide (AID 602259). The following applies: read-out: IC50_Mean. Type of test: functional. (In general: In fluorescence polarisation assays a small probe gives low polarisation when free and higher when bound to something large.)

The target in test [8] is T4, Polyadenylate-binding protein 1. As to the kind of experiment: PABP1 MLLE–PAM2 interaction inhibitors, dose response, miRNA deadenylation inhibitor project, biochemical, fluorescence polarization, Cy5-PAM2 peptide, secondary (AID 602260). To be noted: read-out: IC50_Mean. Type of test: functional.
Test [9] deals with T5, Heat shock factor protein 1 (Mus musculus, UniProt P38532).
T5 sequence (P38532 whole entry): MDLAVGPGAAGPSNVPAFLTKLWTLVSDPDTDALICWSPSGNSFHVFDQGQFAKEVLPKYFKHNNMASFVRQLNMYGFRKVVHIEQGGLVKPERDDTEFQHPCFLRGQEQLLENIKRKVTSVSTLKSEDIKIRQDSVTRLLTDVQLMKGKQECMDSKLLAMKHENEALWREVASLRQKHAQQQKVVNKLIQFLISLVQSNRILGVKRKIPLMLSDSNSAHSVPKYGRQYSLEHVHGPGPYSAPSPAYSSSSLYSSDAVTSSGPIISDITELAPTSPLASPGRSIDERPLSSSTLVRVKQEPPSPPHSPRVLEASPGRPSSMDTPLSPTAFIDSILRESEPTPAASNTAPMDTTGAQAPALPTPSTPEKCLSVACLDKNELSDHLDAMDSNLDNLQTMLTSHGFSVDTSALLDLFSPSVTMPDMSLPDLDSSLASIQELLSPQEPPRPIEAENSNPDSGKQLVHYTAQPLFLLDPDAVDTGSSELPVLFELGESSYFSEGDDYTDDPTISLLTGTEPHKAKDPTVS
As to the kind of experiment: HSF1 potentiators in luciferase reporter cells, confirmation, cell-based, NIH3T3, luminescence, dose retest (AID 435004).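 Further: stress induced by proteasome inhibitor MG132 added 30 min after compound; luciferase reporter driven by HSF1 response element in NIH3T3 cells; actives raise luminescence as potentiators of the MG132 stress response.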 Type of test: functional. (In general: A reporter such as luciferase makes a cellular process visible.)

A short description of test [10]: NIH-3T3 fibroblast cytotoxicity, dose response, cytotoxicity control, cell-based, fluorescence, Alamar Blue, secondary assay (AID 2327).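 Further: NIH-3T3 mouse fibroblasts cultured with fluconazole at 8 µg/mL.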 Type of test: functional.
Test [11] can be described thus: C. albicans growth with fluconazole, confirmation, fluorescence, retest (AID 2467). Type of test: functional, cell-based.

T4 sequence (P11940 whole entry): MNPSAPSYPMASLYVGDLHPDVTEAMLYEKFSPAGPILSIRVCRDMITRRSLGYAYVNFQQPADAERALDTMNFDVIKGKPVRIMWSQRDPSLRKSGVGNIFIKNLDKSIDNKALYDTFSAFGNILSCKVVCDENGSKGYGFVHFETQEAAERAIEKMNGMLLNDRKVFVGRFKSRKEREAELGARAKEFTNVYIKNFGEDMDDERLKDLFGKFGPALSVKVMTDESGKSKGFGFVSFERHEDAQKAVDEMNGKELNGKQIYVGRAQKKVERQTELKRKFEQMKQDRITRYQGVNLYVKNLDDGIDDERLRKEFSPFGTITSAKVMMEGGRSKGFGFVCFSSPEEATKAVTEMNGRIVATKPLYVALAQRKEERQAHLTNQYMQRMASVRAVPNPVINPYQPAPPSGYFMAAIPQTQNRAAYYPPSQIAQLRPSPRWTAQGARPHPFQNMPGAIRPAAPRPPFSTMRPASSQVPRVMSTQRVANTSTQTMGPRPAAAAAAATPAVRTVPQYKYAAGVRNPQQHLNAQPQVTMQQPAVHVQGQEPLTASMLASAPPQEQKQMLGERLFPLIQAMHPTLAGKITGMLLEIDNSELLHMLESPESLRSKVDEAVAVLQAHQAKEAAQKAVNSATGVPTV
Sequence of FAD-linked sulfhydryl oxidase ALR (P55789 whole entry): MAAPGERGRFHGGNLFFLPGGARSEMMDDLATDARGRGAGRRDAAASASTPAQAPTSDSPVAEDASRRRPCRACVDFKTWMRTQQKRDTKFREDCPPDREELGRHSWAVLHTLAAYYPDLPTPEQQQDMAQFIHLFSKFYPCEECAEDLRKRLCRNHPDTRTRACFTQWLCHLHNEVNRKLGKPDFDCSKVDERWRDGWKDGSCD

For `Cc1cccc(/C=c2\s/c(=C\C(=O)C(C)(C)C)[nH]c2=O)c1`, in [1], the CC50 is 24.7 µM (active). Further, the EC50 on Streptokinase A was > 150 µM (not active); with Streptococcus it was 17.2 µM (active); in test [2], 10 µM (active). Consider `Brc1cccc(-c2nc3ccc(Br)cn3c2Cc2ccsc2)c1`, for which, on Protein skinhead-1, the IC50 is > 100 µM (inactive). As for `O=[N+]([O-])c1cccc(/C=C/c2ccccn2)c1`, the IC50 on Protein skinhead-1 was 39.8 µM (active). Regarding `Cc1cccc(NC(=O)c2ccc3c(c2)C(=O)N(c2ccccc2C)C3=O)n1`, on Protein skinhead-1, the IC50 is > 100 µM (inactive). In the case of `COc1ccc(NS(=O)(=O)c2ccc(N/N=C/c3ccc(N4CCOCC4)cc3)c([N+](=O)[O-])c2)cc1`, the EC50 in [3] was 6.25 µM (active); in [4], 5.68 µM (active). Take `C#CC[N+](C)(C)CCCCCCCC`: the EC50 in test [3] is 13.6 µM (active); in test [4], 16 µM (active); in [5], > 53 µM (inactive). `Fc1ccc(-c2ccnc(S)n2)cc1`: the half-maximal activity concentration (AC50) in test [6] is 0.301 µM (active). Further, the IC50 in test [7] and in [8] was > 66 µM (inactive) each time.

`c1ccc(-c2ccc(-c3nc(-c4cccnc4)no3)cc2)cc1`: the IC50 on Protein skinhead-1 is > 100 µM (inactive). On to `Nc1ccc(C=C2C=Cc3ccccc32)cc1`, for which, at Protein skinhead-1, the IC50 is 21.3 µM (active).

Regarding `ClCc1nc2ccccc2c2ccccc12`, the CC50 in [1] was 18.6 µM (active). Still for that read-out and setting: as for `Cc1cc(=O)oc2c(C)c(OCC(=O)N3CCN(C(=O)C4COc5ccccc5O4)CC3)ccc12` (stereo not drawn), the figure is > 40 µM (active).

On to `Fc1ccc(-c2nnc3ccc(N4CCc5ccccc5C4)nn23)cc1`, for which the EC50 in [3] is 40.1 µM (active); in test [9], > 260 µM (inactive); in test [4], 54 µM (active). For the molecule `O=C(C1CCCN(S(=O)(=O)c2ccc(F)cc2)C1)N(Cc1cccs1)C1CC1` (stereo not drawn), the EC50 in [3] is 51.6 µM (active); in test [4] it was 137 µM (active). For the molecule `CN(C)CCNC(=O)c1ccc(COc2ccc(Cl)cc2Cl)cc1`, the EC50 was 10.7 µM (active) in test [3] and 9 µM (active) in test [4]. For `N#Cc1cc2c(nc1SCC(=O)Nc1cc(Cl)ccc1Cl)C1CCN2CC1`, the EC50 is 6 µM (active) in test [3] and 3.02 µM (active) in test [4]. Consider `COc1ccc(C(C(=O)NC2CCCCC2)N(Cc2cccs2)C(=O)Cc2c[nH]c3ccccc23)cc1` (stereo not drawn), for which, at Protein skinhead-1, the IC50 is > 100 µM (inactive). Also, the results for the EC50 in test [10] and in test [11] were > 150 µM (inactive) and > 38 µM (not active), respectively. On to `COc1cc(C2C(C#N)=C(C)N=C3C2=C(O)c2ccccc23)cc(OC)c1OC` (stereo not drawn), for which the EC50 in test [3] was 16.1 µM (active); in test [4], 21.5 µM (active).

These data come from ChEMBL document CHEMBL1201862, “PubChem BioAssay data set” (2004).
